Measured values: patent US12274703B2, “Compositions and methods of treatment for neurological disorders comprising a dementia” (Gliapharm SA, priority 2017, dated 2025)
Counter-ions that a name gives are not always drawn.

System: primary astrocytes
Experiment: High throughput screening for lactate secretion: acidification of extracellular medium (SNARF5)
Format: cell-based, mouse
Settings: Mus musculus, Astrocyte, 1.5 h; Appendix I; primary screening, 10 uM, 90 min; relative to positive control; read-out: Score
Protocol: Primary cultures of cerebrocortical astrocytes were obtained from 1-2-day-old OF1 mouse pups (Charles River Laboratories). Briefly, cortices were isolated and minced in small pieces under a dissecting microscope. The cells were incubated for 30 min at 37° C. in a solution containing 20 U/ml of papain enzyme (Worthington Biochemical), L-cysteine 1 mM (Sigma), and 10 kU/ml DNase I (Worthington Biochemical) for an enzymatic dissociation. Papain activity was stopped by the addition of fetal calf serum (FCS) to the solution, and a single-cell suspension was then obtained by mechanical dissociation, which consisted in cells trituration in a DMEM (D7777, Sigma-Aldrich) medium (supplemented with 44 mm NaHCO3, and 10 ml/L antibiotic/antimycotic solution) containing 10% FCS. The cells were seeded at an average density of 6×10^4 cells/cm^2 in poly-D-lysine-coated 96, 12 or 6-well culture plates, depending on their use, and incubated at 37° C. in a humidified atmosphere containing 5% CO2/95% air. Culture medium was renewed twice per week. Cells were stimulated and harvested between DIV14 and DIV17, when confluence and cell growth were optimal.
Secretion of lactate in a high-throughput screening (HTS) fashion was measured indirectly through the acidification of extracellular medium. To this end, primary astrocytes grown in 96-well plates for 17 days were stimulated with the compounds as listed herein.
After washing the cells twice with stimulation medium (DMEM (D5030, Sigma), 3 mM NaHCO3 and 5 mM Glucose) at 37° C., cells were stimulated with the compounds at a final concentration of 10 uM (1% DMSO final) in 50 ul per well of stimulation medium supplemented with 10 uM of the extracellular pH sensor SNARF-5F %-(AND-6)-CAR (Life Technologies Corporation). Each compound was tested in two different plates for duplicates.
After 90 min stimulation, fluorescence was read at exc. (excitation) 480 nm/emm. (emission) 580 nm and at exc 480 nm/emm. 630 nm. The ratio of fluorescence between 630 nm and 580 emission values, which represents extracellular pH, was calculated.
In each plate, 8 wells were used for negative controls (DMSO) and 8 wells were used for positive controls (CCCP 2 uM in DMSO). Z prime values were calculated for each of the plates tested and values <0 were discarded.
The average and SD of compounds' values tested in duplicates were calculated, and compound was noted as HIT when the difference between compound's average and negative control's average was greater than three times the sum of compound's SD and negative controls' SD. Only scores greater than 40% were considered as lead hits for the CDC54K library; for the remaining libraries, all hits were considered. Scores are calculated as the % of activity compared to the positive control in each plate (which is 100%).
Primary screening hits were cherry picked on new plates and confirmed for SNARF5 effect, after having discarded those compounds that are fluorescent (exc. 480 nm/emm. 580 nm or 630 nm) before stimulation. Extracellular medium was next analyzed for extracellular lactate quantification for secondary screening.
Identification of lactate-enhancing drugs with high throughput screening (HTS) experiments on astrocytes primary cultures using extracellular pH dye (SNARF5F 5-(and 6)-carboxylic acid) for 90 min. The procedure is described in Material and Methods (2. Cell culture, 2.1. HTS for lactate secretion and 2.2. Extracellular lactate quantification).
The procedure was performed as follows: • Primary screening: acidification of the extracellular medium • Primary screening confirmation: acidification of the extracellular medium, removal of compounds with fluorescent activity at exc. 480 nm/emm. 580 nm or 630 nm. • Secondary screening: dosage of extracellular lactate

In order of rising Emax at 10 µM:
1. Cc1cccc([N+]2=C3CCCCCN3C(O)(c3ccc([N+](=O)[O-])cc3)C2)c1 (centres unmarked) [K404-0914]  0%
2. COc1ccc(OC)c([N+]2=C3CCCCCN3C(O)(c3ccc([N+](=O)[O-])cc3)C2)c1 (centres unmarked) [K404-0863]  0%
3. Cc1ccc(C(=O)N2CCCC(Nc3ncnc4c3CCC4)C2)cn1 (centres unmarked) [T636-2144]  0%
4. CC(=O)N1CCCc2cc(S(=O)(=O)NC(c3ccccc3)C(C)C)ccc21 (centres unmarked) [T6067366]  0%
5. Cc1cccc([N+]2=C3CCCCCN3C(O)(c3cccc([N+](=O)O)c3)C2)c1 (centres unmarked) [K404-0915]  0%
6. CCN(Cc1ccccc1)S(=O)(=O)c1cc(-c2noc(C3CCCC3)n2)cs1 [L287-1758]  0%
7. O=C(C1CCOC1)N1CCCn2nc(-c3cccc(Cl)c3)cc2C1 (centres unmarked) [P218-0884]  0%
8. O=C(c1cccc(F)c1)N1CCC(Nc2ncnc3c2CCC3)CC1 [T636-1601]  0%
9. Cc1nc2c(c(Nc3cccc(C(F)(F)F)c3)n1)CCC2 [D278-0514]  0%
10. Cc1ccc([N+]2=C3CCCCCN3C(O)(c3ccc([N+](=O)[O-])cc3)C2)cc1 (centres unmarked) [K404-0828]  0%
11. CC(=O)N1CCc2sc(S(=O)(=O)NCc3ccccc3)cc2C1 [P025-0168]  14.5%
12. O=S(=O)(c1ccc(F)cc1)N1CCSC1c1ccccc1Cl (centres unmarked) [4052-4279]  15.6%
13. Cc1nc(N2CCCC(C(=O)NCc3cccnc3)C2)c2c(C)c(C)oc2n1 (centres unmarked) [F228-0856]  18.6%
14. COc1ccc(C2(O)C[N+](c3ccccc3C)=C3CCCCCN32)cc1OC (centres unmarked) [K404-0906]  19.1%
15. Fc1ccc(Nc2nc(N3CCOCC3)c3ccccc3n2)cc1 [T0508-5193]  19.5%
16. CN1CCC(OCCCNc2ncnc3c2CCC3)CC1 [T636-0181]  22.8%
17. COc1ccccc1S(=O)(=O)Nc1ccc2nc(C)sc2c1 [T5246417]  24.1%
18. OC1(c2ccccc2)C[N+](c2ccccc2)=C2SCCCN21 (centres unmarked) [T0507-8442]  26.8%
19. COc1ccc(C2SCCN2S(=O)(=O)c2ccc(C)c(C)c2)cc1OC (centres unmarked) [F1462-0491]  27.2%
20. Cc1ccc(S(=O)(=O)N2CCSC2c2ccc([N+](=O)[O-])cc2)c(C)c1 (centres unmarked) [T5464782]  27.7%
21. CC(=O)N1CCc2sc(S(=O)(=O)Nc3cc(C)cc(C)c3)cc2C1 [P025-0080]  33.1%
22. COc1cccc(-c2cc3n(n2)CCCN(Cc2ccncc2)C3)c1 [T202-0973]  34.1%
23. Cc1cccc([N+]2=C3SCCCN3C(O)(c3ccc(F)cc3)C2)c1 (centres unmarked) [K404-0394]  34.7%
24. CC(=O)N1CCCc2cc(S(=O)(=O)NCc3ccc(Cl)cc3)ccc21 [G855-0033]  34.7%
25. Cc1cccc(NS(=O)(=O)c2cc(-c3noc(C)n3)cs2)c1 [L287-0220]  35.2%
26. CCNC(=O)C1CCCN(c2ncnc3oc(C)c(C)c23)C1 (centres unmarked) [F228-0534]  35.4%
27. O=C(NC1CC1)c1cccc(NS(=O)(=O)c2ccc(N3CCCC3=O)cc2)c1 [T5618591]  41.6%
28. O=C(Cc1cccc(F)c1)N1CCC(Nc2ncnc3c2CCC3)C1 (centres unmarked) [T636-2360]  44%
29. O=C(NCc1cccc(F)c1)NC1CCN(c2ncnc3c2CCC3)C1 (centres unmarked) [T636-1243]  45.5%
30. Cc1cc(S(=O)(=O)NCc2ccncc2)c(Cl)cc1Cl [T5581430]  47.2%
31. CCc1ccc(S(=O)(=O)N2CCSC2c2ccc(OC)c(OC)c2)cc1 (centres unmarked) [4052-4304]  49.4%
32. OC1(c2ccccc2)C[N+](c2ccc(Cl)cc2)=C2CCCCN21 (centres unmarked) [F0524-0488]  51.2%
33. O=S(=O)(NC1CCCC1)c1cc(-c2noc(C3CCC3)n2)cs1 [L287-1221]  51.6%
34. COc1ccccc1[N+]1=C2CCCCCN2C(O)(c2ccc(F)cc2)C1 (centres unmarked) [F0524-0611]  53.4%
35. CC(C)OCCCNc1ncnc2c1CCC2 [T636-0027]  53.6%
36. Cc1cccc([N+]2=C3SCCCN3C(O)(c3ccc(Cl)cc3)C2)c1 (centres unmarked) [F0522-0533]  55.7%
37. COc1ccc(OC)c([N+]2=C3CCCCCN3C(O)(c3ccc(C)cc3)C2)c1 (centres unmarked) [K404-0855]  58.5%
38. Cc1ccc(C)c([N+]2=C3CCCCN3C(O)(c3ccc(F)cc3)C2)c1 (centres unmarked) [K404-0697]  59.6%
39. COc1ccc(C2(O)C[N+](c3ccccc3C)=C3CCCCN32)cc1 (centres unmarked) [F0524-0507]  61.2%
40. Cc1cccc(NS(=O)(=O)c2cc(-c3ccnn3C)cs2)c1 [L924-0884]  65.6%
41. Cc1nc2ccc(NS(=O)(=O)c3ccccc3F)cc2s1 [T5511047]  67%
42. Cc1cccc([N+]2=C3CCCCN3C(O)(c3ccc(F)cc3)C2)c1C (centres unmarked) [K404-0685]  67.9%
43. CCOc1ccc(C2(O)C[N+](c3ccccc3C)=C3CCCCN32)cc1 (centres unmarked) [F0524-0511]  70%
44. CC1c2ccsc2CCN1c1ncnc2sccc12 (centres unmarked) [T5630309]  72.2%
45. CC(=O)c1cccc(NC(=O)C(C)Sc2ncnc3ccsc23)c1 (centres unmarked) [T5627721]  72.4%
46. Cc1ccsc1C(=O)NC1CCN(c2ncnc3c2CCC3)C1 (centres unmarked) [T636-1114]  72.5%
47. Cc1cccc([N+]2=C3CCCCCN3C(O)(c3ccc(F)cc3)C2)c1 (centres unmarked) [K404-0910]  72.6%
48. COc1ccccc1[N+]1=C2CCCCN2C(O)(c2ccc(F)cc2)C1 (centres unmarked) [F0524-0338]  73.6%
49. Cc1ccc(CN2CCN(c3ncnc4c3CCC4)CC2)o1 [T636-1937]  74%
50. COc1cccc(CNc2ncnc3c2CCC3)c1 [T636-0134]  75.1%
51. O=S(=O)(Nc1ccc(O)c(Cl)c1)c1ccc2ccccc2c1 [T0517-8939]  76.8%
52. Cc1ccc(CNS(=O)(=O)c2cc(-c3noc(C4CCCC4)n3)cs2)cc1 [L287-1641]  77.2%
53. COc1ccc(C)cc1NS(=O)(=O)c1cc(-c2ccnn2C)cs1 [L924-0830]  78.2%
54. Cc1nc(-c2cccc(NS(=O)(=O)c3ccc(N4CCCC4=O)cc3)c2)cs1 [T5599698]  85.6%
55. CN(C)Cc1cccc(CNc2ncnc3sccc23)c1 [T6783542]  85.7%
56. COc1ccc(C2(O)C[N+](c3cccc(C)c3)=C3CCCCN32)cc1 (centres unmarked) [K404-0796]  86.1%
57. O=C(c1ccc(Cl)s1)N1CCC(Nc2ncnc3c2CCC3)C1 (centres unmarked) [T636-2391]  93.2%
58. O=S(=O)(NC1CCN(c2ncnc3c2CCC3)C1)c1ccccc1 (centres unmarked) [T636-1250]  96.4%
59. Cc1cccc([N+]2=C3CCCCN3C(O)(c3ccc(Cl)cc3)C2)c1 (centres unmarked) [K404-0800]  97.3%
60. FC(F)(F)c1cccc(CNc2ncnc3sccc23)c1 [T5346988]  99.6%
61. O=C(C[n+]1cc(-c2ccccc2)n2c1CCC2)c1ccc(Br)cc1 [T0502-5560]  102%
62. c1csc(C(Nc2ncnc3sccc23)C2CC2)c1 (centres unmarked) [T5713637]  114%
63. CC(=O)c1ccc(NS(=O)(=O)c2cc(-c3noc(C4CCCC4)n3)cs2)cc1 [L287-1577]  119%

Same assay, conditions: Mus musculus, Astrocyte, 1.5 h; Prestwick hits; 10 uM, 90 min; activity relative to positive control CCCP 2 uM; read-out: Score

In order of rising Emax at 10 µM:
1. CC(COc1ccccc1)NC(C)C(O)c1ccc(O)cc1 (centres unmarked) [Isoxsuprine hydrochloride]  5.5%
2. Clc1ccc2c(c1)CCc1cccnc1C2=C1CCNCC1 [Desloratadine]  6.08%
3. CCCCC(CC)CNC(=N)NC(=N)NCCCCCCNC(=N)NC(=N)NCC(CC)CCCC (centres unmarked) [Alexidine dihydrochloride]  38.9%
4. Cc1cc(/C=C/c2ccc3cc(N(C)C)ccc3[n+]2C)c(C)n1-c1ccccc1 [Pyrvinium pamoate]  99.1%

Same assay, conditions: Mus musculus, Astrocyte, 1.5 h; Prestwick hits; 10 uM, 90 min; relative to positive control CCCP 2 uM; read-out: HTS Score (lactate)

In order of falling Emax at 10 µM:
1. Cc1cc(/C=C/c2ccc3cc(N(C)C)ccc3[n+]2C)c(C)n1-c1ccccc1 [Pyrvinium pamoate]  99.1%
2. CCCCC(CC)CNC(=N)NC(=N)NCCCCCCNC(=N)NC(=N)NCC(CC)CCCC (centres unmarked) [Alexidine dihydrochloride]  38.9%
3. Clc1ccc2c(c1)CCc1cccnc1C2=C1CCNCC1 [Desloratadine]  6.1%
4. CC(COc1ccccc1)NC(C)C(O)c1ccc(O)cc1 (centres unmarked) [Isoxsuprine hydrochloride]  5.5%
